Measured values: US20250101063A1, “POLYPEPTIDE COMPOUND AND USE THEREOF IN TREATMENT OF ENTERITIS” (Sichuan Gooddoctor Panxi Pharmaceutical Co., Ltd., priority 2022, published 2025)
Entries after “also recorded” stand apart in the source; their conditions may differ. Where no end group is shown, it is not given here.

Experiments:
[1] = test system: TNBS-induced model of acute inflammatory bowel disease (UC) in SD rat; test: TNBS-induced model of acute inflammatory bowel disease (UC) in SD rat; format: in vivo; details: for Body weight, Grouping day (D 0, g): D 0, before treatment; for Body weight, Grouping day (D 0, g) / DAI score, Experimental day 1 (D 1, point) / DAI score, Experimental day 3 (D 3, point) / Body weight, Experimental day 5 (D 5, g): enema once a day; for Body weight, Grouping day (D 0, g) / DAI score AUC(0-14 d) (D 0-D 14) / Weight change range (D 0-D 14, %) / DAI score, Experimental day 1 (D 1, point) / DAI score, Experimental day 3 (D 3, point) / Body weight, Experimental day 5 (D 5, g) / Body weight, Experimental endpoint (D 14, g) / DAI score, Experimental endpoint (D 14, point) / Colon length (cm) / Colon ulcer and inflammation score (point) / Colon ulcer area (cm^2) / Colon weight / Colon weight/length ratio (100* g/cm) / Colonic adhesion score (point): mean ± SD; for DAI score AUC(0-14 d) (D 0-D 14) / Weight change range (D 0-D 14, %) / Body weight, Experimental endpoint (D 14, g) / DAI score, Experimental endpoint (D 14, point) / Colon length (cm) / Colon ulcer and inflammation score (point) / Colon ulcer area (cm^2) / Colon weight / Colon weight/length ratio (100* g/cm) / Colonic adhesion score (point) / Effect on disease progression of ulcerative colitis / DAI scores (in words) / Effect on weight gain inhibition / weight loss response of model animals (in words): enema once a day 14 days; for Colon length (cm) / Colon ulcer and inflammation score (point) / Colon ulcer area (cm^2) / Colon weight / Colon weight/length ratio (100* g/cm) / Colonic adhesion score (point) / Effect on colon atrophy process / colon weight/length ratio (in words) / Effect on gross colon injury status (colonic adhesion, ulcer and inflammation) and colon ulcer area (in words): experimental endpoint; for Overall therapeutic effect in the rat model of ulcerative colitis (in words) / Effect on disease progression of ulcerative colitis / DAI scores (in words) / Effect on weight gain inhibition / weight loss response of model animals (in words) / Effect on colon atrophy process / colon weight/length ratio (in words) / Effect on gross colon injury status (colonic adhesion, ulcer and inflammation) and colon ulcer area (in words): set treatment regimen; for Effect on disease progression of ulcerative colitis / DAI scores (in words) / Effect on weight gain inhibition / weight loss response of model animals (in words) / Effect on colon atrophy process / colon weight/length ratio (in words) / Effect on gross colon injury status (colonic adhesion, ulcer and inflammation) and colon ulcer area (in words): vs model control group
Description: In this experiment, a rat model of ulcerative colitis was established by administering trinitrobenzene sulfonic acid (TNBS) to laboratory animal male SD rats for a single enema intervention. Acute colitis in rats induced by trinitrobenzene sulfonic acid (TNBS) is an immune response induced by cytokines secreted by Th1 type cells. […] This model is simple to establish and has good reproducibility. It is an experimental animal model widely used in evaluating drugs for the treatment of inflammatory bowel disease. […] During the experimental treatment period (D1-D14), the body weight and general clinical observation indicators (including but not limited to food intake, water intake, activity level and defecation, etc.) of the animals in each experimental group were dynamically collected. At the same time, based on the relevant scoring standards for the disease activity index of ulcerative colitis, the reactivity such as the weight loss degree, stool morphology and trait, and bloody stool of the animals in each experimental group after TNBS induction were scored, and the disease activity index (DAI) of ulcerative colitis was calculated, once a day for 14 consecutive days. At the end point of the experiment, colon tissues of animals in each experimental group were collected, and the length and weight of the colon were measured and then the non-autopsy images were collected. Then the colon was cut open along the intestinal wall longitudinally and autopsy images were collected. Based on the “Criteria for Scoring Gross Morphological Manifestations of the Colon”, the gross damage with respect to colon adhesions, colon ulcers and inflammation of animals in each experimental group was observed and scored. Ulcer images were collected under a stereomicroscope and the area of colon ulcer foci was calculated, followed by routine fixation.

[2] = test system: zebrafish model of intestinal mucosal injury; test: Efficacy in relieving colitis: intestinal lumen area in TNBS-treated zebrafish; format: in vivo; details: for Intestinal lumen area (pixels, mean ± SE): 2 days after TNBS, n = 10; for Activity in relieving intestinal lumen dilatation: 1000 μg/mL, significance vs model control group of the same batch; for Intestinal lumen area compared with the model control group (in words): 250, 500, 1000 μg/mL, Table 4
Experimental: Experimental animals: Wild-type AB strain zebrafishes, bred by natural pair mating. Zebrafishes aged 3 days post fertilization (3 dpf). Zebrafishes were kept in fish farming water at 28° C. (water quality: 200 mg of instant sea salt in each 1L of reverse osmosis water, with the conductivity of 450-550 μS/cm; pH of 6.5-8.5; and hardness of 50-100 mg/L CaCO3), the experimental animal use license number is: SYXK (Zhe) 2012-0171, and the breeding management met the requirements of the international AAALAC certification (certification number: 001458).
(1) Grouping: Polypeptide group: prepared into a stock solution of 20.0 mg/mL with ultrapure water and stored at −20° C.
Positive control group: prednisone, as white powder, with batch number C10016501, Shanghai Macklin Biochemical Technology Co., Ltd., stored at 4° C.; prepared into a 15.0 mg/mL stock solution with DMSO, and stored in aliquots at −20° C.
Normal control group and model control group.
(2) Experimental method: 3 dpf wild-type AB strain zebrafishes were randomly selected and placed in a 6-well plate, with 30 zebrafishes in each well (experimental group). Except for the normal control group, all other experimental groups were given TNBS in water to establish the zebrafish model of intestinal mucosal injury. After 2 days of treatment at 28° C., TNBS was removed, and polypeptide compound in water (at concentrations shown in Table 4) was given respectively, and for the positive control, prednisone was 15.0 μg/mL. A normal control group (healthy group) and a model control group (intestinal mucosal injury group) were set up at the same time. The capacity of each well (experimental group) was 3 mL. After 2 days of treatment at 28° C., 10 zebrafishes were randomly selected from each experimental group and photographed under a dissecting microscope. NIS-Elements D 3.20 advanced image processing software was used to analyze and collect data, and the intestinal lumen area of the zebrafish was analyzed. The statistical analysis results of this indicator were used to evaluate the efficacy of the samples in relieving colitis. The statistics results were expressed as mean±SE. SPSS26.0 software was used for statistical analysis, and p<0.05 indicates statistically significant difference.
The concentration gradient of the test substances set in this experimental system was 250 μg/mL, 500 μg/mL, and 1000 μg/mL. […] When the concentration of the test substance was further increased for intervention, the death phenomenon of zebrafishes was found in the group; therefore, in the subsequent rounds of activity evaluation, each test polypeptide compound was uniformly administered at 1000 μg/mL for intervention.

[3] = high dose group (compound 1: 6.0 mg/kg; compound 6: 2.8 mg/kg)
[4] = low dose group (compound 1: 3.0 mg/kg; compound 6: 1.4 mg/kg)

Substance | Body weight, Grouping day (D 0, g) [1, 3] [g] | Body weight, Grouping day (D 0, g) [1, 4] [g] | DAI score AUC(0-14 d) (D 0-D 14) [1, 3] | Weight change range (D 0-D 14, %) [1, 3] [%] | DAI score AUC(0-14 d) (D 0-D 14) [1, 4] | Weight change range (D 0-D 14, %) [1, 4] [%] | DAI score, Experimental day 1 (D 1, point) [1, 3] [point] | DAI score, Experimental day 1 (D 1, point) [1, 4] [point] | DAI score, Experimental day 3 (D 3, point) [1, 3] [point] | DAI score, Experimental day 3 (D 3, point) [1, 4] [point] | Body weight, Experimental day 5 (D 5, g) [1, 3] [g] | Body weight, Experimental day 5 (D 5, g) [1, 4] [g] | Body weight, Experimental endpoint (D 14, g) [1, 3] [g] | DAI score, Experimental endpoint (D 14, point) [1, 3] [point] | Body weight, Experimental endpoint (D 14, g) [1, 4] [g] | DAI score, Experimental endpoint (D 14, point) [1, 4] [point] | Colon length (cm) [1, 3] [cm] | Colon ulcer and inflammation score (point) [1, 3] | Colon ulcer area (cm^2) [1, 3] | Colon weight [1, 3] [g] | other results
EPVPQAK [Compound 6] | 275.55 ± 7.92 | 276.61 ± 9.81 | 39.55 ± 3.99^####++++ | 1.50 ± 10.78 | 49.65 ± 3.95 | 0.48 ± 9.87 | 4.2 ± 0.8 | 3.9 ± 0.9 | 4.8 ± 1.0 | 5.0 ± 1.7 | 246.74 ± 22.76 | 243.72 ± 22.18 | 279.67 ± 30.93 | 0.7 ± 1.2 | 277.96 ± 29.18 | 1.3 ± 1.2 | 13.89 ± 1.60 | 2.50 ± 1.43 point | 3.66 ± 2.36^# cm^2 | 2.41 ± 0.63 | Colon weight/length ratio (100* g/cm) [1, 3]: 17.70 ± 5.71# 100* g/cm; Colonic adhesion score (point) [1, 3]: 1.30 ± 0.82 point; Colon length (cm) [1, 4]: 13.37 ± 1.40 cm; Colon ulcer and inflammation score (point) [1, 4]: 3.00 ± 0.94 point; Colon ulcer area (cm^2) [1, 4]: 3.46 ± 2.06^## cm^2; Colon weight [1, 4]: 2.23 ± 0.39 g; Colon weight/length ratio (100* g/cm) [1, 4]: 16.93 ± 3.87^## 100* g/cm; Colonic adhesion score (point) [1, 4]: 1.70 ± 0.67 point; Overall therapeutic effect in the rat model of ulcerative colitis (in words) [1]: significant therapeutic effects; Effect on disease progression of ulcerative colitis / DAI scores (in words) [1]: significant improvement effect on the disease progression of ulcerative colitis; Effect on weight gain inhibition / weight loss response of model animals (in words) [1]: no obvious improved therapeutic effect; also recorded: did not show a significant weight improvement effect; Effect on colon atrophy process / colon weight/length ratio (in words) [1]: colon weight/length ratio was significantly decreased; Effect on gross colon injury status (colonic adhesion, ulcer and inflammation) and colon ulcer area (in words) [1]: obvious therapeutic effects; also recorded: significant therapeutic effects on the gross damage manifestation of the colon; Intestinal lumen area (pixels, mean ± SE) ([2]; 250 μg/mL in water): 53093 ± 3839 pixels; Intestinal lumen area (pixels, mean ± SE) ([2]; 500 μg/mL in water): 45831 ± 3894 pixels; Intestinal lumen area (pixels, mean ± SE) ([2]; 1000 μg/mL in water): 28429 ± 3711 pixels; Activity in relieving intestinal lumen dilatation [2]: ** (** p < 0.01); Intestinal lumen area compared with the model control group (in words) [2]: significant statistical differences compared with the model control group
H-KEPVPQAKPRKVAAQ-OH [Compound 1] | 279.99 ± 10.57 | 274.40 ± 9.10 | 30.65 ± 2.93^####+++ | 6.97 ± 4.73 | 37.65 ± 3.60 | 7.96 ± 7.32 | 3.9 ± 0.6 | 3.5 ± 1.3 | 4.3 ± 1.8 | 4.9 ± 1.6 | 263.90 ± 15.38 | 251.65 ± 18.30 | 299.37 ± 14.64 | 0.1 ± 0.3 | 296.07 ± 19.58 | 0.5 ± 0.7 | 16.55 ± 1.67 | 1.40 ± 0.84^####++ point | 2.15 ± 0.74^###+ cm^2 | 2.20 ± 0.28 | Colon weight/length ratio (100* g/cm) [1, 3]: 13.37 ± 1.93^####+ 100* g/cm; Colonic adhesion score (point) [1, 3]: 0.60 ± 0.52 point; Colon length (cm) [1, 4]: 15.34 ± 1.99 cm; Colon ulcer and inflammation score (point) [1, 4]: 2.50 ± 0.85 point; Colon ulcer area (cm^2) [1, 4]: 3.77 ± 1.91^# cm^2; Colon weight [1, 4]: 2.48 ± 0.46 g; Colon weight/length ratio (100* g/cm) [1, 4]: 16.40 ± 3.29^### 100* g/cm; Colonic adhesion score (point) [1, 4]: 1.10 ± 0.57 point; Overall therapeutic effect in the rat model of ulcerative colitis (in words) [1]: significant therapeutic effects; Effect on disease progression of ulcerative colitis / DAI scores (in words) [1]: significant improvement effect on the disease progression of ulcerative colitis; Effect on weight gain inhibition / weight loss response of model animals (in words) [1]: significant effect of improving the weight gain inhibition; also recorded: significant improvement effect on the weight loss response; Effect on colon atrophy process / colon weight/length ratio (in words) [1]: colon weight/length ratio was significantly decreased; Effect on gross colon injury status (colonic adhesion, ulcer and inflammation) and colon ulcer area (in words) [1]: obvious therapeutic effects; also recorded: significant therapeutic effects on the gross damage manifestation of the colon; Intestinal lumen area (pixels, mean ± SE) ([2]; 250 μg/mL in water): 39333 ± 2095 pixels; Intestinal lumen area (pixels, mean ± SE) ([2]; 500 μg/mL in water): 26497 ± 1245 pixels; Intestinal lumen area (pixels, mean ± SE) ([2]; 1000 μg/mL in water): 26174 ± 1898 pixels; Activity in relieving intestinal lumen dilatation [2]: *** (*** p < 0.001); Intestinal lumen area compared with the model control group (in words) [2]: significant statistical differences compared with the model control group
